Active and inactive are the calls of the source. The rule behind the calls is not given here.
Assays:
[1] = Vasodilating activity in rat renal preglomerular microvessels assessed as effect on 20-HETE induced sensitization toward phenylephrine at 1 uM relative to 20-HETE; format: functional
[2] = Solubility of compound in water; format: physicochemical
Mus musculus = assay: Reversal of androgen-driven 20-HETE-induced hypertension in Cyp4a14(-/-) mouse assessed as reduction in systolic blood pressure at 10 mg/kg, ip daily and measured for 10 days; format: functional, organism-based
Rattus norvegicus [3] = species: Rattus norvegicus; assay: Vasodilating activity in rat gracilis muscle arteriole assessed as change in internal diameter; format: functional
Rattus norvegicus [4] = species: Rattus norvegicus; assay: Vasodilating activity in rat gracilis muscle arteriole assessed as inhibition of 20-HETE induced change in internal diameter; format: functional

**Q.** Which “fold change (FC)” value [1] does the source give for `C[C@H](O)CCC/C=C\CCCCCCC/C=C\CCCC(=O)N[C@@H](CC(=O)[O-])C(=O)[O-].[Na+].[Na+]` here?
**A.** -0.59

**Q.** Which “fold change (FC)” value [1] does the source give for `CC(O)CCCC/C=C\CCCCCCC/C=C\CCCC(=O)NCC(=O)[O-].[Na+]` (centres undefined) here?
**A.** 0.58

**Q.** For `O=C([O-])CCC/C=C\CCCCCCC/C=C\CCCCO.[Na+]`, which “fold change (FC)” value [1] is on record?
**A.** -0.68

**Q.** For `[N-]=[N+]=N[C@@H](CO)CCC/C=C\CCCCCCC/C=C\CCCC(=O)[O-].[Na+]`, which “fold change (FC)” value [1] is on record?
**A.** 0.5

**Q.** For `C[C@H](O)CCC/C=C\CCCCCCC/C=C\CCCC(=O)NCC(=O)[O-].[Na+]`, which solubility [2] is on record?
**A.** 500 µg/mL

**Q.** Which “fold change (FC)” value [1] does the source give for `C[C@@H](O)CCC/C=C\CCCCCCC/C=C\CCCC(=O)NCC(=O)[O-].[Na+]` here?
**A.** -4.47

**Q.** And the solubility [2]?
**A.** 500 µg/mL

**Q.** For `CC(O)CCC/C=C\CCCCCCC/C=C\CCCc1nnn[nH]1` (centres undefined), which “fold change (FC)” value [1] is on record?
**A.** -0.78

**Q.** Which results are given for `C[C@H](O)CCC/C=C\CCCCCCC/C=C\CCCC(=O)[O-].[Na+]`?
**A.** fold change (FC) [1]: -0.68; solubility [2]: 250 µg/mL

**Q.** Which “fold change (FC)” value [1] does the source give for `CC(O)CCCCCCCCCCCC/C=C\CCCC(=O)[O-].[Na+]` (centres undefined) here?
**A.** -0.66

**Q.** With `C[C@@H](O)CCC/C=C\CCCCCCC/C=C\CCCC(=O)N[C@@H](CC(=O)O)C(=O)O` as the molecule, how does the Activity (Mus musculus) read?
**A.** Active

**Q.** What about the Activity (Rattus norvegicus [3]) of the same molecule?
**A.** inactive

**Q.** And the Activity (Rattus norvegicus [4])?
**A.** Dose-dependent effect

**Q.** For `CC(O)CCC/C=C\CCCCCCCCCCCCC(=O)[O-].[Na+]` (centres undefined), which “fold change (FC)” value [1] is on record?
**A.** -0.79

**Q.** Which “fold change (FC)” value [1] does the source give for `O=C([O-])CNC(=O)CCC/C=C\CCCCCCC/C=C\CCCCO.[Na+]` here?
**A.** -0.74

**Q.** For `[N-]=[N+]=N[C@H](CO)CCC/C=C\CCCCCCC/C=C\CCCC(=O)[O-].[Na+]`, which “fold change (FC)” value [1] is on record?
**A.** 0.16

**Q.** Which “fold change (FC)” value [1] does the source give for `C[C@@H](O)CCC/C=C\CCCCCCC/C=C\CCCC(=O)[O-].[Na+]` here?
**A.** -0.85

**Q.** And the solubility [2]?
**A.** 250 µg/mL

— ChEMBL document CHEMBL4396942, “19-Hydroxyeicosatetraenoic acid analogs: Antagonism of 20-hydroxyeicosatetraenoic acid-induced vascular sensitization and hypertension” (Bioorg Med Chem Lett, 2019)
